Assay results taken from publication PMC8244813 (Nutrition and cancer, 2019).
Read-outs that look alike come from different tables or passages of the source.

Legend:
[1] = tested on: AMACR mRNA in LNCaP cells; conditions: 6 and 24 h after a single SFN treatment; cited from earlier work
[2] = tested on: AMACR expression in colon cancer Caco-2 cells; conditions: SFN treatment; cited from earlier work
[3] = SFN metabolites in plasma by LC-MS/MS; conditions: BSE group n=42; for Plasma level of individual SFN metabolite, postintervention, Mean (SE): after 200 μmol SFN daily, 4–8 wk; for Plasma level of individual SFN metabolite, preintervention, Mean (SE): baseline before supplementation
[4] = in vivo

Plasma level of individual SFN metabolite, change (post minus pre), Mean (SE) [3]	Plasma level of individual SFN metabolite, postintervention, Mean (SE) [3]	Plasma level of individual SFN metabolite, preintervention, Mean (SE) [3]	Plasma level of individual SFN metabolite, change (post minus pre), Mean (SE) [4]	Plasma level of individual SFN metabolite, preintervention, Mean (SE) [4]	SMILES	AMACR mRNA levels in LNCaP cells [1]	AMACR expression in colon cancer Caco-2 cells [2]
–	–	–	0.04 (0.01) μM	0.00 (0.00) μM	C[S+]([O-])CCCCNC(=S)SCC(N)C(=O)NCC(=O)O (stereo not shown) [SFN-CG, SFN-cysteinylglycine]	–	–
0.03 (0.01) μM	0.03 (0.01) μM	0.00 (0.00) μM	–	–	C[S+]([O-])CCCCNC(=S)SC[C@H](NC(=O)CC[C@H](N)C(=O)O)C(=O)NCC(=O)O (stereo partly shown) [SFN-GSH, SFN-glutathione]	–	–

More lines, now with the values behind:

SMILES	Plasma level of individual SFN metabolite, change (post minus pre), Mean (SE) [3]	Plasma level of individual SFN metabolite, postintervention, Mean (SE) [3]	Plasma level of individual SFN metabolite, preintervention, Mean (SE) [3]	Plasma level of individual SFN metabolite, change (post minus pre), Mean (SE) [4]	Plasma level of individual SFN metabolite, preintervention, Mean (SE) [4]	AMACR mRNA levels in LNCaP cells [1]	AMACR expression in colon cancer Caco-2 cells [2]
C[S+]([O-])CCCCN=C=S (stereo not shown) [SFN, sulforaphane]	0.0001 (0.0001) μM	0.0001 (0.0001) μM	0.00 (0.00) μM	–	–	significantly downregulated	significantly decrease AMACR expression
C[S+]([O-])CCCCNC(=S)SCC(N)C(=O)O (stereo not shown) [SFN-Cys, SFN-cysteine]	0.02 (0.01) μM	0.02 (0.01) μM	0.00 (0.00) μM	–	–	–	–
CC(=O)N[C@@H](CSC(=S)NCCCC[S+](C)[O-])C(=O)O (stereo partly drawn) [SFN-NAC, SFN N-acetyl-L-cysteine]	0.03 (0.01) μM	0.03 (0.01) μM	0.00 (0.00) μM	–	–	–	–
